Data: US20240002429A1, “PRODRUG OF 5a-HYDROXY-6ß-[2-(1H-IMIDAZOL-4-YL)ETHYLAMINO]CHOLESTAN-3ß-OL AND PHARMACEUTICAL COMPOSITIONS COMPRISING SAME FOR USE IN THE TREATMENT OF CANCER” (priority 2020, published 2024)
pIC50: −log10 of the molar value.

Assays:
[1] = tested on: BT-474 human mammary tumor cells; test: Cytotoxicity on BT-474 cells, LDH; assay type: cell-based; settings: for Mean LogIC50 (±SEM): log of IC50 in μM; for pIC50: Homo sapiens
Protocol: (§1) For the second method, the percentage viability is determined using assay of the activity of the enzyme LDH (lactate dehydrogenase) in the cellular supernatants using the kit non radioactive cytotoxicity assay kit (Promega). LDH is an enzyme released in the supernatant of dead cells. The higher the LDH activity in the supernatant, the greater is the cell death. In this enzyme test, the LDH released converts a violet tetrazolium salt to formazan, of red color, absorbing at 490 nm. The intensity of the red color is proportional to the number of dead cells. After 48 h of treatment, the supernatants are transferred to a new 96-well plate and are incubated for 30 minutes in the presence of the substrate mix at room temperature. The reaction is stopped using the stop buffer and the absorbance is determined at 490 nm. The percentage cell death is determined here using a control 100% of maximum activity of LDH (carried out with untreated cells incubated in the presence of the lysis solution for 45 minutes at 37° C. just before adding the substrate mix), and the cellular viability in each well is then deduced from this percentage. IC50 is then determined as explained in the preceding paragraph.
(§2) The cellular viability tests were also carried out on BT-474 human mammary tumor cells (characterized as being positive triples HER2+, ER+, PR+). The BT-474 cells are in a cell culture medium identical to the preceding example and are seeded in 24-well plates at 70 000 cells per well, for determination of cellular viability using trypan blue, or in 96-well plates at 13 000 cells per well for determination of cellular viability using the MTT or LDH assay. After 96 hours (h) of culture in normal conditions, i.e. in an incubator at a temperature of 37° C. at 5% CO2, the BT-474 cells are treated for 48 h with DX101, DX107, and DX113 at 100 nM, 1 μM, 2.5 μM and 10 μM. A control is also carried out using the protocol described above but without treatment with the molecules DX101, DX107, DX113, DX117, DX119, DX121 or DX131.
(§3) After trypsin digestion for 10 minutes at 37° C., cell survival was quantified, also by a trypan blue assay with automatic counting with the Biorad TC20 equipment (TC20™ Automated Cell Counter). The trypan blue assay is based on the cell membrane integrity, which is broken in the dead cells. Trypan blue stains the dead cells blue. The Biorad TC20 cell counter counts the proportion of blue cells and non-blue cells, relative to the cell percentages. The percentage viability is then determined in each well relative to the untreated cells and the IC50 is determined as explained in the preceding example. The percentage viability of the BT-474 cells was determined using the MTT and LDH assay, carried out as described in the preceding example.

[2] = tested on: BT-474 human mammary tumor cells; test: Cytotoxicity on BT-474 cells, trypan blue; assay type: cell-based; settings: BT-474, trypan blue, 48 h
Protocol: as §2, §3

[3] = tested on: 4T1 cells; test: Cytotoxicity on 4T1 cells, CellTox Green Cytotoxicity Assay; assay type: cell-based, murine; settings: Mus musculus; for IC50: read-out: Mean LogIC50 (±SEM) (converted)
Protocol: (§4) The cellular viability tests were carried out on murine mammary tumor 4T1 cells characterized as negative triples (HER2−, ER−, PR−).
(§5) For this experiment, a cell culture medium was prepared. The culture medium consists of Dulbecco's Modified Eagle Medium (DMEM, marketed by Westburg under the reference LO BE12-604F), comprising 4.5 g/L glucose with L-glutamine, to which 10% of fetal calf serum (FCS) and 50 U/mL of penicillin/streptomycin are added. The 4T1 cells are introduced into this culture medium.
(§6) 96-well plates were seeded with 2000 4T1 cells per well. After 72 hours (h) of culture in normal conditions, i.e. in an incubator at a temperature of 37° C. at 5% CO2, the 4T1 cells are treated for 48 h with DX101, DX107, DX113, DX117, DX119, DX121 or DX131 at 100 nM, 1 μM, 2.5 μM and 10 μM. A control condition (CTL) is also carried out in parallel using the protocol described above but without treatment with the molecules DX101, DX107, DX113, DX117, DX119, DX121, DX131 or DX133.
For the third method, the percentage viability is determined using the kit CellTox Green Cytotoxicity Assay (Promega). This assay measures cell death via a change in membrane integrity. […] As a result, the higher the fluorescence in the wells, the greater is the cell death. After 48 h of treatment, the cells are incubated for a minimum of 15 minutes in the presence of the Celltox green reagent at room temperature and the fluorescence is read at […]. The percentage cell death is determined using the control 100% of cell death (carried out for untreated cells incubated in the presence of the lysis solution for 30 minutes at 37° C. before adding the Celltox green reagent), and the cellular viability in each well is then deduced from this percentage. IC50 is then determined as explained above.

[4] = tested on: 4T1 cells; test: Cytotoxicity on 4T1 cells, LDH; assay type: cell-based, murine; settings: Mus musculus; for IC50: read-out: Mean LogIC50 (±SEM) (converted)
Protocol: as §4, §5, §6, §1

[5] = tested on: 4T1 cells; test: Cytotoxicity on 4T1 cells, MTT; assay type: cell-based, murine; settings: Mus musculus; for IC50: read-out: Mean LogIC50 (±SEM) (converted)
Protocol: as §4, §5, §6
(§7) Cellular viability is measured by three different methods. For the first method, MTT labeling is carried out at 48 hours. This test is based on the use of the tetrazolium salt MTT (3-(4,5-dimethylthiazol-2-yl)-2,5-diphenyltetrazolium bromide). The tetrazolium is reduced by mitochondrial succinate dehydrogenase of active living cells, to formazan, a precipitate of a violet color. The quantity of precipitate formed is proportional to the quantity of living cells but also to the metabolic activity of each cell. […] After 48 hours, the medium is aspirated, and the cells are incubated with MTT (0.5 mg/ml in culture medium) for about 3 hours. The MTT solution is aspirated and the violet crystals are dissolved in dimethylsulfoxide (DMSO). The OD (optical density) is measured at 550 nm. The percentage viability is then determined in each well relative to the CTL and the IC50 (concentration for which there are still 50% of living cells) is determined for each molecule with Prism software using the nonlinear regression straight line (log(inhibitor) vs. Response).

[6] = tested on: BT-474 human mammary tumor cells; test: Cytotoxicity on BT-474 cells, MTT; assay type: cell-based; settings: for Mean LogIC50 (±SEM): log of IC50 in μM; for pIC50: Homo sapiens
Protocol: as §7, §2, §3

[7] = Pharmacokinetic study of DX117 (LC/MS in plasma); assay type: in vivo; settings: rat, 50 mg/kg, administered compound assayed
Source text: (§8) The following study is a determination by LC/MS in plasma of the various molecules over 3 days (11 measurement points at the end). The graphs are always presented in comparison with DX101, which is the reference. […]

[8] = Pharmacokinetic study of DX121 (LC/MS in plasma); assay type: in vivo; settings: rat, oral 50 mg/kg, administered compound assayed
Source text: as §8

[9] = BT-474, LDH, 48 h, read-out: IC50
[10] = 4T1, Green Cytotoxicity Assay, 48 h, log of IC50 in μM
[11] = 4T1, Green Cytotoxicity Assay, 48 h, read-out: IC50
[12] = 4T1, LDH, 48 h, log of IC50 in μM
[13] = 4T1, MTT, 48 h, log of IC50 in μM
[14] = BT-474, MTT, 48 h, read-out: IC50

Structure (SMILES)	Mean LogIC50 (±SEM) ([1]; BT-474, LDH, 48 h)	pIC50 [1, 9]	IC50 [3, 10] [µM]	pIC50 [3, 11]	IC50 [4, 12] [µM]	pIC50 ([4]; 4T1, LDH, 48 h, read-out: IC50)	IC50 [5, 13] [µM]	pIC50 ([5]; 4T1, MTT, 48 h, read-out: IC50)	Mean LogIC50 (±SEM) ([6]; BT-474, MTT, 48 h)	pIC50 [6, 14]	further results
CCCCCC(=O)O[C@H]1CC[C@]2(C)[C@H]3CC[C@]4(C)[C@@H]([C@H](C)CCCC(C)C)CC[C@H]4[C@@H]3C[C@@H](NCCc3cnc[nH]3)[C@@]2(O)C1 [DX113, 5α-hydroxy-6β-[2-(1H-imidazol-4-yl)-ethylamino]-cholestan-3β-yl hexanoate]	1.38 ± 0.07	4.63	11	4.96	5.25	5.28	18.2	4.74	1.33 ± 0.07	4.67	Mean LogIC50 (±SEM) ([2]; log of IC50 in μM): 1.09 ± 0.15; pIC50 ([2]; Homo sapiens): 4.91
CC(C)CCCC(C)[C@H]1CCC2C3C[C@@H](NCCc4c[nH]cn4)[C@@]4(O)C[C@@H](OC(=O)NCCc5c[nH]cn5)CC[C@]4(C)C3CC[C@@]21C (stereo partly drawn) [DX117, 5α-hydroxy-6β-[2-(1H-imidazol-4-yl)ethylamino]-cholestan-3β-yl-(2-(1H-imidazol-4-yl)ethyl)carbamate]	0.72 ± 0.18	5.28	9.55	5.02	8.32	5.08	11	4.96	0.79 ± 0.06	5.21	Concentration max [7]: 76.67 nM; Area under curve ([7]; 0-72 h): 2123
CCCCOC(=O)O[C@H]1CC[C@]2(C)[C@H]3CC[C@]4(C)[C@@H]([C@H](C)CCCC(C)C)CC[C@H]4[C@@H]3C[C@@H](NCCc3c[nH]cn3)[C@@]2(O)C1 [DX119, 5α-hydroxy-6β-[2-(1H-imidazol-4-yl)ethylamino]cholestan-3β-yl butyl carbonate]	1.41 ± 0.01	4.59	3.63	5.44	3.09	5.51	9.33	5.03	1.33 ± 0.06	4.84	–
CCOC(=O)O[C@H]1CC[C@]2(C)[C@H]3CC[C@]4(C)[C@@H]([C@H](C)CCCC(C)C)CC[C@H]4[C@@H]3C[C@@H](NCCc3c[nH]cn3)[C@@]2(O)C1 [DX121, 5α-hydroxy-6β-[2-(1H-imidazol-4-yl)ethylamino]cholestan-3β-yl ethyl carbonate]	1.47 ± 0.40	4.93	6.61	5.18	4.68	5.33	11	4.96	1.05 ± 0.17	4.95	Concentration max [8]: 96.33 nM; Area under curve ([8]; 0-72 h): 1000
CCN(CC)C(=O)O[C@H]1CC[C@]2(C)C3CC[C@@]4(C)C(CC[C@@H]4C(C)CCCC(C)C)C3C[C@@H](NCCc3c[nH]cn3)[C@@]2(O)C1 (stereo partly drawn) [DX131, 5α-hydroxy-6β-[2-(1H-imidazol-4-yl)ethylamino]cholestan-3β-yl-diethyl carbamate]	1.45 ± 0.08	–	–	–	–	–	–	–	1.08 ± 0.08	–	pIC50 ([1]; BT-474, 48 h): 4.55; pIC50 ([3]; 4T1, 48 h): 5.74; IC50 ([3]; 4T1, 48 h): 1.7 µM; pIC50 ([4]; 4T1, 48 h): 5.17; IC50 ([4]; 4T1, 48 h): 6.76 µM; pIC50 ([5]; 4T1, 48 h): 4.59; IC50 ([5]; 4T1, 48 h): 25.7 µM; pIC50 ([6]; BT-474, 48 h): 4.92
CCC(=O)NC(Cc1ccc(O)cc1)C(=O)O[C@H]1CC[C@]2(C)C3CC[C@@]4(C)C(CC[C@@H]4C(C)CCCC(C)C)C3C[C@@H](NCCc3c[nH]cn3)[C@@]2(O)C1 (stereo partly drawn) [DX133, 5α-hydroxy-6β-[2-(1H-imidazol-4-yl)ethylamino]cholestan-3β-yl propionyltyrosine]	–	–	3.55	5.45	4.17	5.38	12.3	4.91	–	–	–
